Reference: patent US9096608B2, “Pharmaceutically active pyrazolo-triazine derivatives” (LEAD DISCOVERY CENTER GMBH, priority 2012, dated 2015)
Read-outs that look alike come from different tables or passages of the source.

Assays:
Type in all cases: biochemical
CDK9/Cyclin T1 = biological target: T1, CDK9/Cyclin T1 (Homo sapiens, UniProt P50750); assay: CDK9 Enzymatic Activity Assay (Lance Kinase Activity Assay, FRET); conditions: for CDK9: Selectivity of CDK7 inhibition over CDK9 inhibition [fold]: Table 5B, symbols per IC50 ranges of b615
T1 construct: purchased Invitrogen
T1 sequence (P50750 whole entry): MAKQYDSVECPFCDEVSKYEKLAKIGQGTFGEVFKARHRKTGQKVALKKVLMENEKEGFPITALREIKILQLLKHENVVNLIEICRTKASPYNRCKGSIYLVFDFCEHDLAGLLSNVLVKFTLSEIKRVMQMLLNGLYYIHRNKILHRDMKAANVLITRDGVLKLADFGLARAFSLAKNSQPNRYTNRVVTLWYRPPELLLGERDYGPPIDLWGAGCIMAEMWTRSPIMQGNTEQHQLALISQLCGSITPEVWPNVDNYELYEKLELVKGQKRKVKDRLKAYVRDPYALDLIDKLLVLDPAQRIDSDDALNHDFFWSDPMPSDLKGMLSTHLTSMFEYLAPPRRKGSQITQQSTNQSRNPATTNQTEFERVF
T1 sequence (O60563 whole entry partner): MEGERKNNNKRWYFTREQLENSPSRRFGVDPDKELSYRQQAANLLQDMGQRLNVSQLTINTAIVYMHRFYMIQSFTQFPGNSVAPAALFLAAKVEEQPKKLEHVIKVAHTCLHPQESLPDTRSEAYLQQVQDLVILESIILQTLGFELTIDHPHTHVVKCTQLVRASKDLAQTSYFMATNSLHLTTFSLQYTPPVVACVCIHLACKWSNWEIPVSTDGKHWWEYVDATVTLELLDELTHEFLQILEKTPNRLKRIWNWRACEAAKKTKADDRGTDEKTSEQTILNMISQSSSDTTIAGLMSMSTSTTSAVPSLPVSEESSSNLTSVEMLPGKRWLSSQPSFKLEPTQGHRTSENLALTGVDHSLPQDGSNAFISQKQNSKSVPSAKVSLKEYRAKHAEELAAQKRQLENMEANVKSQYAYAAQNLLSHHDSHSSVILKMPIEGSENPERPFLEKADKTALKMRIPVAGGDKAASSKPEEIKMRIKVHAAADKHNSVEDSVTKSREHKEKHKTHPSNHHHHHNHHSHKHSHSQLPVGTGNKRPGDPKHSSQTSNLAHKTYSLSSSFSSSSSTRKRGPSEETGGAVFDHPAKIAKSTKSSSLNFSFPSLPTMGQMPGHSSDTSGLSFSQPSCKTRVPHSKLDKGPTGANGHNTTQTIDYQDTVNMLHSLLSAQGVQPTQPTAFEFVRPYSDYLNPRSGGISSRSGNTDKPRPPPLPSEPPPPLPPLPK
Protocol: (§1) This protocol describes how the Lance Kinase Activity Assay was performed to determine IC50 values of compounds of general formula (I) against CDK/Cyclin complexes. The principle behind this enzymatic assay is based upon the phosphorylation of the Ulight-Peptide Substrat. It is detected by using a specific EU-labeled anti-phospho peptide antibody.
(§2) Binding of an inhibitor to the kinase prevents phosphorylation of the ULlight-MBP Substrat, resulting in a loss of FRET.
CDK9 Enzymatic Activity Assay
(§3) The compounds of general formula (I) exemplary summarized in Table 1 were diluted from a 10 mM DMSO stock solution 1:10 in a total volume of 15 μl DMSO. This compound predilution was then serial diluted 1:3 over 8 steps in DMSO and briefly spun down. Each compound solution was now diluted 1:20 in Enzymatic Buffer (HEPES: 50 mM, pH: 7.5; MgCl2: 10 mM; EGTA: 1 mM; DTT: 2 mM; Tween-20: 0.01%), mixed thoroughly and spun down.
(§4) For positive controls, 2 μl of DMSO working solution were mixed with 6 μl CDK9/cyclin T1/substrate working solution and 2 μl ATP working solution. Positive and negative controls were calculated from at least 8 different wells. The 384 well plates were mixed in a Teleshaker plate mixer (Beckman Coulter, Brea, Calif., USA) at 2000 rpm for 40 sec, and incubated for 1 h at room temperature before addition of 10 μl LANCE Detection Buffer (1×; EDTA: […]; Eu-Anti-P-MBP: 4 nM) per well. Plates were mixed in a Teleshaker plate mixer (Beckman Coulter, Brea, Calif., USA) at 2000 rpm for sec, followed by incubation with Detection Buffer for 1 h, and reading. […] IC50 values were determined from the sigmoidal dose response curves with the software Quattro Workflow (Quattro GmbH, Munich, Germany).

CDK2/CycA = biological target: T2, CDK2/CycA (Homo sapiens, UniProt P24941); assay: CDK2 Enzymatic Activity Assay (Lance Kinase Activity Assay, FRET); conditions: for CDK2 IC50 range class: Table 5B, symbols per IC50 ranges of b615
T2 construct: purchased Proqinase
Protocol: as §1, §2
CDK2 Enzymatic Activity Assay
as §3
as §4, with “CDK2/CycA/substrate” for “CDK9/cyclin T1/substrate”, “(EDTA:” for “(1×; EDTA:”

CDK7/CycH/Mat1 = biological target: T3, CDK7/CycH/Mat1 (Homo sapiens, UniProt P50613); assay: CDK7 Enzymatic Activity Assay (Lance Kinase Activity Assay, FRET)
T3 construct: purchased Carna
T3 sequence (P50613 whole entry): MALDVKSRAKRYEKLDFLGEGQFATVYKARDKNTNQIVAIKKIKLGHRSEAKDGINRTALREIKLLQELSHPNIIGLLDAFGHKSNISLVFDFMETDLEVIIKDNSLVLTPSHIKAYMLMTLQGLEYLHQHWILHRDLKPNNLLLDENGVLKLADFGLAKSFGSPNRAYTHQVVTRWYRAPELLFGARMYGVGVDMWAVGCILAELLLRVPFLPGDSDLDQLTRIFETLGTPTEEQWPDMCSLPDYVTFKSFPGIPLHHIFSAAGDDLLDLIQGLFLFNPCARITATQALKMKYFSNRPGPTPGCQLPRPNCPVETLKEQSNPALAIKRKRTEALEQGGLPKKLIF
T3 sequence (P51946 whole entry partner): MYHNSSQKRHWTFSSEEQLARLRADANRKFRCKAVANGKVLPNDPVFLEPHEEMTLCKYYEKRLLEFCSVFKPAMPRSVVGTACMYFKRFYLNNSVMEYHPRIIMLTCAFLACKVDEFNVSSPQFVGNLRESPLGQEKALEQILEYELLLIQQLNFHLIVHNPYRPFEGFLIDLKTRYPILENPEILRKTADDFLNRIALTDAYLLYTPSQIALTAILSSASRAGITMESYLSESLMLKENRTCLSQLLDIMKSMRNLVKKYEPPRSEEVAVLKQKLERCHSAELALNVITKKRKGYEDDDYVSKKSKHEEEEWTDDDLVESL
T3 sequence (P51948 whole entry partner): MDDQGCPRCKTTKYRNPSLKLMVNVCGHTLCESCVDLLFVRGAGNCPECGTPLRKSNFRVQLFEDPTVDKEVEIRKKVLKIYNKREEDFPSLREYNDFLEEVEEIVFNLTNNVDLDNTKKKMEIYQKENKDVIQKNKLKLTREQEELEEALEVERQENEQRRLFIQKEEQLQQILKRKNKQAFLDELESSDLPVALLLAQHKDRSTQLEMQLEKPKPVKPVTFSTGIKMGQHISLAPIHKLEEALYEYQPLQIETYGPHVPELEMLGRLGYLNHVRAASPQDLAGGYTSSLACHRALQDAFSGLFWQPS
Protocol: as §1, §2
CDK7 Enzymatic Activity Assay
as §3
as §4, with “6 μl CDK7/CycH/Mat1/substrate working solution” for “6 μl CDK9/cyclin T1/substrate working solution”, “rpm for 40 sec, followed” for “rpm for sec, followed”

[1] = Table 5A, 25 μM ATP final, read-out: CDK7: IC50 [mM] for CDK7 inhibition (the above defined ranges apply)

Compound	CDK9: Selectivity of CDK7 inhibition over CDK9 inhibition [fold] (CDK9/Cyclin T1)	CDK2 IC50 range class (CDK2/CycA)	IC50 (CDK7/CycH/Mat1; [1]) [nM]	also measured
CCOc1cccc([C@H](C)Nc2nc(O[C@@H]3CCCNC3)nc3c(C(C)C)cnn23)c1 [(VII-aV), N-((S)-1-(3-ethoxyphenyl)ethyl)-8-isopropyl-2-((R)-piperidin-3-yloxy)pyrazolo[1.5-a][1,3,5]triazin-4-amine]	+++ (IC50>2500 nM)	+++ (IC50>2500 nM)	> 100	
COc1cccc([C@H](C)Nc2nc(O[C@@H]3CCCNC3)nc3c(C(C)C)cnn23)c1OC [(VII-aX), N-((S)-1-(2,3-dimethoxy-phenyl)ethyl)-8-isopropyl-2-((R)-piperidin-3-yloxy)pyrazolo[1,5-a][1,3,5]triazin-4-amine]	+++ (IC50>2500 nM)	+++ (IC50>2500 nM)	< 10	
COc1ccc([C@H](C)Nc2nc(OC3CCN(C)CC3)nc3c(C(C)C)cnn23)cc1 [(VII-aa), (S)-8-isopropyl-N-(1-(4-methoxyphenyl)ethyl)-2-((1-methylpiperidin-4-yl)oxy)pyrazolo[1,5-a][1,3,5]triazin-4-amine]	+++ (IC50>2500 nM)	+++ (IC50>2500 nM)	> 100	
CC(C)c1cnn2c(N[C@H](C)c3cccc(Cl)c3)nc(OC3CCN(C)CC3)nc12 [(VII-ad), (R)-N-(1-(3-chlorophenyl)ethyl)-8-isopropyl-2-((1-methylpiperidin-4-yl)oxy)pyrazolo[1,5-a][1,3,5]triazin-4-amine]	+++ (IC50>2500 nM)		< 10	Selectivity CDK7 over CDK9 [fold] (CDK9/Cyclin T1; Table 7, lower part): 815 fold; IC50 (CDK9/Cyclin T1; Table 7, upper part): > 2500 nM; Selectivity CDK7 over CDK2 [fold] (CDK2/CycA; Table 7, lower part): 968 fold; IC50 (CDK2/CycA; Table 7, upper part): > 2500 nM; IC50 (CDK7/CycH/Mat1; Table 7, lower part, read-out: IC50 [nM] CDK7): < 10 nM; IC50 (CDK7/CycH/Mat1; Table 7, upper part, read-out: IC50 [nM] CDK7): < 10 nM
Cc1ccccc1[C@H](C)Nc1nc(O[C@@H]2CCCNC2)nc2c(C(C)C)cnn12 [(VII-af), 8-isopropyl-2-((R)-piperidin-3-yloxy)-N-((S)-1-(o-tolyl)ethyl)pyrazolo[1,5-a][1,3,5]triazin-4-amine]	+++ (IC50>2500 nM)	+++ (IC50>2500 nM)	10 to 30	
CC(C)c1cnn2c(N[C@@H](C)c3ccccc3C(F)(F)F)nc(O[C@@H]3CCCNC3)nc12 [(VII-ah), 8-isopropyl-2-((R)-piperidin-3-yloxy)-N-((S)-1-(2-(trifluoromethyl)phenyl)ethyl)pyrazolo[1,5-a][1,3,5]triazin-4-amine]	+++ (IC50>2500 nM)	+++ (IC50>2500 nM)	10 to 30	
CC(C)c1cnn2c(N[C@@H](C)c3cccc(Cl)c3)nc(O[C@@H]3CCCNC3)nc12 [(VII-aj), N-((S)-1-(3-chlorophenyl)ethyl)-8-isopropyl-2-((R)-piperidin-3-yloxy)pyrazolo[1,5-a][1,3,5]triazin-4-amine]	+++ (IC50>2500 nM)	+++ (IC50>2500 nM)	30 to 100	
CC(C)c1cnn2c(N[C@@H](C)c3cccc(F)c3)nc(O[C@@H]3CCCNC3)nc12 [(VII-ak), N-((S)-1-(3-fluorophenyl)ethyl)-8-isopropyl-2-((R)-piperidin-3-yloxy)pyrazolo[1,5-a][1,3,5]triazin-4-amine]	+++ (IC50>2500 nM)	+++ (IC50>2500 nM)	30 to 100	
CC(C)c1cnn2c(N[C@@H](C)c3ccc(Cl)cc3)nc(O[C@@H]3CCCNC3)nc12 [(VII-al), N-((S)-1-(4-chlorophenyl)ethyl)-8-isopropyl-2-((R)-piperidin-3-yloxy)pyrazolo[1,5-a][1,3,5]triazin-4-amine]	+++ (IC50>2500 nM)	+++ (IC50>2500 nM)	> 100	
CC(C)c1cnn2c(N[C@@H](C)c3cccc4ccccc34)nc(O[C@@H]3CCCNC3)nc12 [(VII-am), 8-isopropyl-N-((S)-1-(naphthalen-1-yl)ethyl)-2-((R)-piperidin-3-yloxy)pyrazolo[1,5-a][1,3,5]triazin-4-amine]	+++ (IC50>2500 nM)	+++ (IC50>2500 nM)	10 to 30	
COc1cccc([C@H](C)Nc2nc(OC3CCNCC3)nc3c(C(C)C)cnn23)c1 [(VII-q), (S)-8-isopropyl-N-(1-(3-methoxyphenyl)ethyl)-2-(piperidin-4-yloxy)pyrazolo[1,5-a][1,3,5]triazin-4-amine]	+++ (IC50>2500 nM)		< 10	
CC(C)c1cnn2c(N[C@H](c3ccccc3)C3CC3)nc(O[C@@H]3CCCNC3)nc12 [(VII-s), N-((S)-cyclopropyl(phenyl)methyl)-8-isopropyl-2-((R)-piperidin-3-yloxy)pyrazolo[1,5-a][1,3,5]triazin-4-amine]		+++ (IC50>2500 nM)	10 to 30	
CC(C)c1cnn2c(N[C@@H](C)c3ccccc3Cl)nc(O[C@@H]3CCCNC3)nc12 [(VII-t), N-((S)-1-(2-chlorophenyl)ethyl)-8-isopropyl-2-((R)-piperidin-3-yloxy)pyrazolo[1,5-a][1,3,5]triazin-4-amine]	+ (50 nM<IC50≦500 nM)		< 10	
CC(C)c1cnn2c(N[C@@H](C)c3ccc(Cl)cc3)nc(OC3CCN(C)CC3)nc12 [(VII-y), (S)-N-(1-(4-chlorophenyl)ethyl)-8-isopropyl-2-((1-methylpiperidin-4-yl)oxy)pyrazolo[1,5-a][1,3,5]triazin-4-amine]	+++ (IC50>2500 nM)		> 100	
CC(C)c1cnn2c(N[C@@H](C)c3ccccc3)nc(NC3CCNCC3)nc12 [(VIII-d), (S)-8-isopropyl-N4-(1-phenylethyl)-N2-(piperidin-4-yl)pyrazolo[1,5-a][1,3,5]triazine-2,4-diamine]		+++ (IC50>2500 nM)	10 to 30	
COc1ccccc1[C@H](C)Nc1nc(N[C@@H]2CCCNC2)nc2c(C(C)C)cnn12 [(VIII-g), 8-isopropyl-N4-((S)-1-(2-methoxyphenyl)ethyl)-N2-((R)-piperidin-3-yl)pyrazolo[1,5-a][1,3,5]triazine-2,4-diamine]	+++ (IC50>2500 nM)		< 10	
COc1cccc(CNc2nc(OC3CCN(C)CC3)nc3c(C(C)C)cnn23)c1 [C-II, reference compound]				Selectivity CDK7 over CDK9 [fold] (CDK9/Cyclin T1; Table 6, CDK9 activity as multiple of CDK7 activity): 9 fold; IC50 (CDK7/CycH/Mat1; Table 6, read-out: IC50 [nM] CDK7): < 10 nM
